Assay results taken from ChEMBL document CHEMBL1667853, “Design and synthesis of potent Gram-negative specific LpxC inhibitors” (Bioorg Med Chem Lett, 2011).
≈ marks a conversion by molar mass, not a printed value.

Tests used:
[1] = Inhibition of Aquifex aeolicus LpxC
[2] = biological target: T1, UDP-3-O-acyl-N-acetylglucosamine deacetylase (Escherichia coli K-12, UniProt P0A725); test: Inhibition of Escherichia coli LpxC
T1 sequence (P0A725 whole entry): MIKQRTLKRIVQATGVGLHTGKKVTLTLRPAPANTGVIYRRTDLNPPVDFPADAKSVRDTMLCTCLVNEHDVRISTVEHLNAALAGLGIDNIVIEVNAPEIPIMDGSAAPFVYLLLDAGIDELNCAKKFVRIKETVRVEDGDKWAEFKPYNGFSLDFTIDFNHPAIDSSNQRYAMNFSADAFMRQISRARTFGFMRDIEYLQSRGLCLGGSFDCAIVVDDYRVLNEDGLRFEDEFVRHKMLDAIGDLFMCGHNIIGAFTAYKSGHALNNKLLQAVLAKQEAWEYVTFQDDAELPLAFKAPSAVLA

Escherichia coli [3] = test: Antimicrobial activity against Escherichia coli ATCC 25922 by broth dilution assay; type: functional
Escherichia coli [4] = test: Antimicrobial activity against wild type Escherichia coli by broth dilution assay; type: functional
Acinetobacter baumannii = test: Antimicrobial activity against wild type Acinetobacter baumannii by broth dilution assay; type: functional
Escherichia coli [5] = test: Antimicrobial activity against Escherichia coli HS294 by broth dilution assay; type: functional
Klebsiella pneumoniae [6] = test: Antimicrobial activity against wild type Klebsiella pneumoniae by broth dilution assay; type: functional
Klebsiella pneumoniae [7] = test: Antimicrobial activity against ESBL producing Klebsiella pneumoniae by broth dilution assay; type: functional
Escherichia coli [8] = test: Antimicrobial activity against multidrug-resistant Escherichia coli by broth dilution assay; type: functional
Klebsiella aerogenes = test: Antimicrobial activity against wild type Enterobacter aerogenes by broth dilution assay; type: functional
Pseudomonas aeruginosa [9] = test: Antimicrobial activity against multidrug-resistant Pseudomonas aeruginosa by broth dilution assay; type: functional
Pseudomonas aeruginosa [10] = test: Antimicrobial activity against wild type Pseudomonas aeruginosa by broth dilution assay; type: functional
[11] = test system: Acinetobacter calcoaceticus; test: Antimicrobial activity against wild type Acinetobacter calcoaceticus by broth dilution assay; type: functional
Enterobacter cloacae = test: Antimicrobial activity against ESBL producing Enterobacter cloacae by broth dilution assay; type: functional
Serratia marcescens = test: Antimicrobial activity against wild type Serratia marcescens by broth dilution assay; type: functional
Escherichia coli [12] = test: Antimicrobial activity against ESBL producing Escherichia coli by broth dilution assay; type: functional
[13] = test system: Stenotrophomonas maltophilia; test: Antimicrobial activity against wild type Stenotrophomonas maltophilia by broth dilution assay; type: functional
Proteus vulgaris = test: Antimicrobial activity against wild type Proteus vulgaris by broth dilution assay; type: functional

Structure (SMILES)	Kd [1]	IC50 [2]	MIC (Escherichia coli [3])	MIC (Escherichia coli [4])	MIC (Acinetobacter baumannii)	MIC (Escherichia coli [5])	MIC (Klebsiella pneumoniae [6])	MIC (Klebsiella pneumoniae [7])	MIC (Escherichia coli [8])	MIC (Klebsiella aerogenes)	MIC (Pseudomonas aeruginosa [9])	MIC (Pseudomonas aeruginosa [10])	MIC [11]	MIC (Enterobacter cloacae)	MIC (Serratia marcescens)	MIC (Escherichia coli [12])	MIC [13]	MIC (Proteus vulgaris)
CCCCCCCOc1cccc(C(=O)O)c1	2000 nM																	
C[C@@H](N)[C@@H](NC(=O)N1CCN(c2ccc(C#Cc3ccccc3)cc2)CC1)C(=O)NO		0.6 nM	1.56 µg/mL (≈ 3.7 µM)	1.56 µg/mL (≈ 3.7 µM)	25 µg/mL (≈ 59.3 µM)	0.4 µg/mL (≈ 0.949 µM)	25 µg/mL (≈ 59.3 µM)	12.5 µg/mL (≈ 29.7 µM)	3.13 µg/mL (≈ 7.43 µM)	25 µg/mL (≈ 59.3 µM)	3.13 µg/mL (≈ 7.43 µM)	12.5 µg/mL (≈ 29.7 µM)	25 µg/mL (≈ 59.3 µM)	3.13 µg/mL (≈ 7.43 µM)	12.5 µg/mL (≈ 29.7 µM)	1.56 µg/mL (≈ 3.7 µM)	> 50 µg/mL	6.25 µg/mL (≈ 14.8 µM)
